The results in this text go back to patent US10034879B2, “Substituted benzaldehyde compounds and methods for their use in increasing tissue oxygenation” (Global Blood Therapeutics, Inc., priority 2011, dated 2018).

The structures appear in SMILES notation.

Data set [1] can be described thus: Pharmacokinetic oral study in rat. To be noted: for AUClast ratio / Cmax ratio: PO, 100 mg/kg vs 44 mg/kg; for Cmax / Tmax: Sprague-Dawley. The format is in vivo, SD Rats. On the procedure:
Sprague Dawley rats were treated with 7.8 mg/Kg of Compound 43 dissolved in 10% DMA:[…]:16% ca vitron. At specified time points 10 uL of whole blood/plasma was removed from rats and treated with 490 ul pH 3 buffer+500 uL ACN/IS, then shaken for 1 hour, centrifuged for 10 minutes at […] at 4 C. The supernatant was transferred to a filter plate and centrifuged at 2000 rpm for 1 minute at 4 C. The samples were then analyzed by LC-MS/MS monitoring parent aldehyde.
SD Rats were treated by gavage with 44 mg/kg and 100 mg/kg dissolved in 10% DMA:90% PEG. At specified time points blood was taken and worked up as described above in the IV Study.

The next data set deals with T1, purified HBS (Homo sapiens, UniProt P68871+P69905, E7V).
T1 construct: HbS is purified by the CRO VIRUSYS, from blood obtained from homozygous sickle cell patients; tissue VIRUSYS (CRO that did the purification); host or cells: blood of homozygous sickle cell patients
Kind of data set: HbS polymerization assay (delay time). The format is biochemical. As to conditions: 50 μM purified HBS, 1.8 M potassium phosphate pH 7.4. On the procedure: Polymerization assays are carried out in vitro using purified HBS exchanged into 1.8 M potassium phosphate buffer at pH 7.4. Using a slightly modified protocol (Antonini and Brunori, 1971), HbS is purified by the CRO VIRUSYS, from blood obtained from homozygous sickle cell patients through the Hemoglobinopathy Center at Children's Hospital Oakland Research Institute (CHORI) with Institutional Review Board approval. Compounds are prepared in 100% DMSO and a desired amount is added to 50 μM of purified HBS at a final DMSO concentration of 0.3%. Final potassium phosphate concentration is adjusted to 1.8 M using a combination of 2.5 M potassium phosphate stock solution and water at pH 7.4. The reaction mixture is incubated for an hour at 37° C. and then transferred into a 24-well plate for deoxygenation in a glove box containing 99.5% nitrogen and 0.5% oxygen. The 24-well plate is not covered and incubated at 4° C. on a plate cooler inside the glove box for one and a half hours. Fifty μL of the reaction mixture is transferred into a 96-well plate and the absorbance at 700 nm is measured every minute for one hour at 37° C. in a plate reader located inside the glove box. A plot of the absorbance against time is fitted using a Boltzman sigmoidal fit and the delay time (from zero to time at half Vmax) is measured. To compare and rank compounds, delay times are expressed as percent delay (% DT), which is defined as the difference in delay times for HBS/compound and HBS alone multiplied by 100 and divided by the delay time for HBS alone.
Compounds listed below have been tested in the polymerization assay. Activity ranges are defined by the number of dagger (†) symbols indicated. † denotes activity ≤40% but ≤80%; †† denotes activity >80% but ≤120%; ††† denotes activity >120% but ≤140%; †††† denotes activity >160%.

Setting [2] is: whole blood, PO 44 mg/kg, Blood.
Where [3] appears, read: whole blood, PO 100 mg/kg, Blood.

`CC(C)n1nccc1-c1ncccc1COc1cccc(O)c1C=O` [Compound 43, 2-hydroxy-6-((2-(1-isopropyl-1H-pyrazol-5-yl)pyridin-3-yl)methoxy)benzaldehyde]: the AUClast in data set [1] (PO 44 mg/kg, Blood) is 395638.27 µmol·min/L; in data set [1] (PO 44 mg/kg, Plasma) it was 12517.54 µmol·min/L; in data set [1] (PO 100 mg/kg, Blood), 1384101.11 µmol·min/L; in data set [1] (PO 100 mg/kg, Plasma), 52836.17 µmol·min/L. Also, the AUClast ratio in data set [1] (Blood) stood at 3.50; in data set [1] (Plasma), 4.22. Besides, the Cmax ratio was determined as 2.88 in data set [1] (Blood) and 3.01 in data set [1] (Plasma). In addition, the Cmax – broadly, the highest concentration seen after dosing – in data set [1] (PO 44 mg/kg, Plasma) came out at 14.8 µM; in data set [1] (PO 100 mg/kg, Plasma), 44.5 µM; in data set [1] (setting [2]), 381 µM; in data set [1] (setting [3]) it was 1100 µM. The Tmax (commonly the time from dosing to the highest level) is 3.33 h in data set [1] (PO 44 mg/kg, Plasma); 11.3 h in data set [1] (PO 100 mg/kg, Plasma); 5.33 h in data set [1] (setting [2]); 12 h in data set [1] (setting [3]). Also, the “% delta Delay” value at purified HBS is given as “†† (†† denotes activity >80% but ≤120%)”.
